These results are taken from patent US4288432A, “Novel enkephalin analogs and process for the preparation thereof” (Richter Gedeon Vegyeszeti Gyar Rt., priority 1979, dated 1981).

Non-standard residues stand in square brackets, D forms with d. Residues, ends and D or L forms follow the SMILES beside them. *: point of attachment. Tyr(Nα-amidino) = N=C(N)N[C@@H](Cc1ccc(O)cc1)C(=O)*; dNle = CCCC[C@@H](N)C(=O)O

Common to all, as to type: cell-based
The test system of test [1] is guinea-pig ileum (GPI). Description: GPI assay according to Kosterlitz et al. (opiate activity). As to conditions: guinea-pig ileum preparation; assay of Kosterlitz et al. 1970; relative to normorphine = 1.0. From the text: (§1) 39, 398 (1970)] and in mouse ves deferens (MVD) preparations [J. Hughes et al.: Br. J. Pharmacol. 53, 371 (1975)]. […] The figures represent the activities of compounds relative to […] (the activity of normorphine is taken as unity=1.0).
^b GPI assay according to Kosterlitz et al. [Br. J. Pharmacol. 39, 39

The test system of another test is mouse vas deferens (MVD). Briefly: MVD assay according to Hughes et al. (opiate activity). Particulars: mouse vas deferens preparation; assay of Hughes et al. 1975; relative to normorphine = 1.0.
Source text: as §1
^c MVD assay according to Hughes et al. [Br. J. Pharmacol. 53, 371

In test [2] the test system is guinea-pig ileum (GPI). Briefly: GPI assay according to Kosterlitz and Watt (opiate activity). Particulars: guinea-pig ileum preparation; assay of Kosterlitz and Watt 1968; relative to normorphine = 1.0.
Source text: as §1
^a GPI assay according to Kosterlitz and Watt [Br.J. Pharmacol. 33,

For `CSCC[C@@H](NC(=O)[C@H](Cc1ccc(O)cc1)NC(=N)N)C(=O)NCC(=O)N[C@@H](Cc1ccccc1)C(N)=O` [H2 N-C-(NH)-Tyr-D-Met-Gly-Phe-NH2, amidino-L-tyrosyl-D-methionyl-glycyl-L-phenylalanine amide], the “Opiate activity GPI^b (opiate activity of normorphine = 1.0)” value (“Opiate activity GPI^b” below) with guinea-pig ileum (GPI) [1] is on record as 79. Further, the “Opiate activity MVD^c (opiate activity of normorphine = 1.0)” value (shortened to “Opiate activity MVD^c”) in the test with mouse vas deferens (MVD) is 21. For the same compound, the “Opiate activity GPI^a (opiate activity of normorphine = 1.0)” value with guinea-pig ileum (GPI) [2] came to 211.

As for `CSCC[C@@H](NC(=O)[C@H](Cc1ccc(O)cc1)NC(=N)N)C(=O)NCC(=O)N[C@@H](Cc1ccccc1)C(=O)N1CCC[C@H]1C(N)=O` [H2 N-C-(NH)-Tyr-D-Met-Gly-Phe-Pro-NH2, amidino-L-tyrosyl-D-methionyl-glycyl-L-phenylalanyl-L-proline amide] ({Tyr(Nα-amidino)}-[dM]GFP-NH2), in the test on guinea-pig ileum (GPI) [1], the “Opiate activity GPI^b” value worked out at 173. Also, the “Opiate activity MVD^c” value in the test with mouse vas deferens (MVD) worked out at 25. Moreover, in the test with guinea-pig ileum (GPI) [2], the “Opiate activity GPI^a (opiate activity of normorphine = 1.0)” value is given as 825.

Take `CCCC[C@@H](NC(=O)[C@H](Cc1ccc(O)cc1)NC(=N)N)C(=O)NCC(=O)N[C@@H](Cc1ccccc1)C(N)=O` [H2 N-C-(NH)-Tyr-D-Nle-Gly-Phe-NH2, amidino-L-tyrosyl-D-norleucyl-glycyl-L-phenylalanine amide]: the “Opiate activity GPI^b” value in the test on guinea-pig ileum (GPI) [1] turned out to be 79. For the same compound, in the test on mouse vas deferens (MVD), the “Opiate activity MVD^c” value is 18. Moreover, in the test with guinea-pig ileum (GPI) [2], the “Opiate activity GPI^a (opiate activity of normorphine = 1.0)” value was 126.

For `CCCC[C@@H](NC(=O)[C@H](Cc1ccc(O)cc1)NC(=N)N)C(=O)NCC(=O)N[C@@H](Cc1ccccc1)C(=O)N1CCC[C@H]1C(N)=O` [H2 N-C-(NH)-Tyr-D-Nle-Gly-Phe-Pro-NH2, amidino-L-tyrosyl-D-norleucyl-glycyl-L-phenylalanyl-L-proline amide] ({Tyr(Nα-amidino)}-[dNle]GFP-NH2), in the test on guinea-pig ileum (GPI) [1], the “Opiate activity GPI^b” value is recorded as 21. Also, in the test on mouse vas deferens (MVD), the “Opiate activity MVD^c” value is recorded as 17. Moreover, the “Opiate activity GPI^a (opiate activity of normorphine = 1.0)” value in the test on guinea-pig ileum (GPI) [2] was determined as 79.

On to `CC(=O)O.CSCC[C@@H](NC(=O)[C@@H](N)Cc1ccc(O)cc1)C(=O)NCC(=O)N[C@@H](Cc1ccccc1)C(N)=O.O` [H-Tyr-D-Met-Gly-Phe-NH2, L-Tyrosyl-D-methionyl-glycyl-L-phenylalanine amide acetate hydrate] (H-Y[dM]GF-NH2), for which the “Opiate activity GPI^b” value in the test with guinea-pig ileum (GPI) [1] was found to be 17. Further, the “Opiate activity MVD^c” value with mouse vas deferens (MVD) came out at 4. For the same compound, the “Opiate activity GPI^a (opiate activity of normorphine = 1.0)” value in the test with guinea-pig ileum (GPI) [2] was determined as 17.

Take `CC(=O)O.CSCC[C@@H](NC(=O)[C@@H](N)Cc1ccc(O)cc1)C(=O)NCC(=O)N[C@@H](Cc1ccccc1)C(=O)N1CCC[C@H]1C(N)=O.O.O.O` [H-Tyr-D-Met-Gly-Phe-Pro-NH2, L-tyrosyl-D-methionyl-glycyl-L-phenylalanyl-proline amide acetate trihydrate] (H-Y[dM]GFP-NH2): the “Opiate activity GPI^b” value in the test on guinea-pig ileum (GPI) [1] came to 8. Further, the “Opiate activity MVD^c” value with mouse vas deferens (MVD) is reported as 8. Besides, the “Opiate activity GPI^a (opiate activity of normorphine = 1.0)” value with guinea-pig ileum (GPI) [2] worked out at 8.

As for `CC(=O)O.CCCC[C@@H](NC(=O)[C@@H](N)Cc1ccc(O)cc1)C(=O)NCC(=O)N[C@@H](Cc1ccccc1)C(N)=O.O` [H-Tyr-D-Nle-Gly-Phe-NH2, L-Tyrosyl-D-norleucyl-glycyl-L-phenylalanine amide acetate hydrate] (H-Y[dNle]GF-NH2), in the test with guinea-pig ileum (GPI) [1], the “Opiate activity GPI^b” value is listed as 22. Moreover, in the test with mouse vas deferens (MVD), the “Opiate activity MVD^c” value is reported as 8. For the same compound, the “Opiate activity GPI^a (opiate activity of normorphine = 1.0)” value in the test with guinea-pig ileum (GPI) [2] was determined as 22.

Consider `CC(=O)O.CCCC[C@@H](NC(=O)[C@@H](N)Cc1ccc(O)cc1)C(=O)NCC(=O)N[C@@H](Cc1ccccc1)C(=O)N1CCC[C@H]1C(N)=O.O` [H-Tyr-D-Nle-Gly-Phe-Pro-NH2, L-Tyrosyl-D-norleucyl-glycyl-L-phenylalanyl-L-proline amide acetate hydrate] (H-Y[dNle]GFP-NH2), for which the “Opiate activity GPI^b” value with guinea-pig ileum (GPI) [1] was 12. Also, the “Opiate activity MVD^c” value in the test on mouse vas deferens (MVD) is 10. Besides, in the test with guinea-pig ileum (GPI) [2], the “Opiate activity GPI^a (opiate activity of normorphine = 1.0)” value came to 12.
